# According to BindingDB's records for doi:10.1016/j.bmc.2010.01.055 (Chinese Academy of Sciences, 2010):
# Molecular target: Receptor-type tyrosine-protein phosphatase alpha (PTPRA) (Homo sapiens) (UniProt P18433)
# Experiment: Inhibition of PTPalpha expressed in Escherichia coli BL21 (DE3) after 10 mins by spectrophotometry
# Receptor-type tyrosine-protein phosphatase alpha (PTPRA) (Homo sapiens), sequence (P18433 whole entry, looked up): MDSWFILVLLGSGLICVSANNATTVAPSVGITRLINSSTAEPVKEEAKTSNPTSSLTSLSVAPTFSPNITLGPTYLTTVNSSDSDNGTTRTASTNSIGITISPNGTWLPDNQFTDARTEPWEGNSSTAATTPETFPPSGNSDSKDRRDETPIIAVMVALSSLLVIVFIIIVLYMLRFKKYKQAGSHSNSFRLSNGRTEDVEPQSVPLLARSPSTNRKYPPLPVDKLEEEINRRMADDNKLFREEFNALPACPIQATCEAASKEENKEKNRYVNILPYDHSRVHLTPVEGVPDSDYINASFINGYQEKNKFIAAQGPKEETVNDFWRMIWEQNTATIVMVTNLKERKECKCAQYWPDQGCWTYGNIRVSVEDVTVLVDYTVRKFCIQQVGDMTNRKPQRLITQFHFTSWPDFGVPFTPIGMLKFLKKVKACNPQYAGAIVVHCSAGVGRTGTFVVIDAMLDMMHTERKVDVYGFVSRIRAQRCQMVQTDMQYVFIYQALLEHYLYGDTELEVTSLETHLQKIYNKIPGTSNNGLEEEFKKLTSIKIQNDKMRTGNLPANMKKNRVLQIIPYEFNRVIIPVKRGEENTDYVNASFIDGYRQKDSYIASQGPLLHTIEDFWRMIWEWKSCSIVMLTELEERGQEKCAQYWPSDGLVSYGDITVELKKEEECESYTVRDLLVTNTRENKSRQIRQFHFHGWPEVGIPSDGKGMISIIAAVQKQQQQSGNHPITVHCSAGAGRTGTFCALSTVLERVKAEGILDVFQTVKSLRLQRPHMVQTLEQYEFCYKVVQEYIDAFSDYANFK
row,SMILES,IC50 [µM]
1,CCOC(=O)c1c(-c2ccc(-c3ccc(F)c(Cl)c3)cc2)csc1NC(=O)c1ccccc1C(=O)O [2-(2-Carboxy-benzoylamino)-4-(30-chloro-40-fluorobiphenyl-4-yl)-thiophene-3-carboxylic acid ethyl ester],23.1
2,CC(C)OC(=O)c1c(-c2ccc(-c3ccc(Cl)cc3)cc2)csc1NC(=O)C1C2C=CC(C2)C1C(=O)O (centres undefined) [2-[(3-Carboxy-bicyclo[2.2.1]hept-5-ene-2-carbonyl)-amino]-4-(4'-chloro-biphenyl-4-yl)-thiophene-3-carboxylicacid isopropyl ester],> 100
3,"CCc1oc2cc(S(=O)(=O)Nc3nccs3)ccc2c1C(=O)c1cc(Br)c(O)c(Br)c1 [3-(3,5-dibromo-4-hydroxybenzoyl)-2-ethyl-N-(thiazol-2-yl)benzofuran-6-sulfonamide]",> 100
4,CC(C)OC(=O)c1c(-c2ccc(-c3ccccc3)cc2)csc1NC(=O)C1C2C=CC(C2)C1C(=O)O (centres undefined) [4-Biphenyl-4-yl-2-[(3-carboxy-bicyclo[2.2.1]hept-5-ene-2-carbonyl)-amino]-thiophene-3-carboxylic acid isopropylester],> 100
